Among the data in PubChem BioAssay AID1259407 (Chemical Carcinogenesis Research Information System (CCRIS), 2018) are mutagenic call values, retold here.

This data set relates to CCRIS mutagenicity, Ames/micronucleus/aberration tests. In words: CCRIS mutagenicity studies.
Where [1] appears, read: Test System: AMES SALMONELLA TYPHIMURIUM, Strain/Indicator: TA97, Metabolic Activation: NONE, Method: PREINCUBATION
Where [2] appears, read: Test System: AMES SALMONELLA TYPHIMURIUM, Strain/Indicator: TA98, Metabolic Activation: NONE, Method: PREINCUBATION

Active and inactive are the calls of the source. How the calls were made is not given here.

In the case of `CCCCOC(C)=O`, the mutagenic call was “inactive; negative” (Test System: AMES SALMONELLA TYPHIMURIUM, Strain/Indicator: TA97, Metabolic Activation: HAMSTER, LIVER, S-9, AROCLOR 1254 (10 OR 30%), Method: PREINCUBATION); “inactive; negative” under setting [1]; “inactive; negative” (Test System: AMES SALMONELLA TYPHIMURIUM, Strain/Indicator: TA97, Metabolic Activation: RAT, LIVER, S-9, AROCLOR 1254 (10 OR 30%), Method: PREINCUBATION); “inactive; negative” (Test System: AMES SALMONELLA TYPHIMURIUM, Strain/Indicator: TA98, Metabolic Activation: HAMSTER, LIVER, S-9, AROCLOR 1254 (10 OR 30%), Method: PREINCUBATION); “inactive; negative” (Test System: AMES SALMONELLA TYPHIMURIUM, Strain/Indicator: TA98, Metabolic Activation: RAT, LIVER, S-9, AROCLOR 1254 (10 OR 30%), Method: PREINCUBATION); “inactive; negative” (Test System: AMES SALMONELLA TYPHIMURIUM, Strain/Indicator: TA98, Metabolic Activation: RAT, LIVER, S-9, KC 500, Method: PREINCUBATION). Moreover, the mutagenic call is “inactive; negative” (Test System: AMES SALMONELLA TYPHIMURIUM, Strain/Indicator: TA98, Metabolic Activation: RAT, LIVER, S-9, PHENOBARBITAL AND BETA-NAPHTHOFLAVONE, Method: PREINCUBATION); “inactive; negative” (Test System: AMES SALMONELLA TYPHIMURIUM, Strain/Indicator: TA100, Metabolic Activation: HAMSTER, LIVER, S-9, AROCLOR 1254 (10 OR 30%), Method: PREINCUBATION); “inactive; negative” (Test System: AMES SALMONELLA TYPHIMURIUM, Strain/Indicator: TA100, Metabolic Activation: RAT, LIVER, S-9, AROCLOR 1254 (10 OR 30%), Method: PREINCUBATION); “inactive; negative” (Test System: AMES SALMONELLA TYPHIMURIUM, Strain/Indicator: TA100, Metabolic Activation: RAT, LIVER, S-9, KC 500, Method: PREINCUBATION); “inactive; negative” (Test System: AMES SALMONELLA TYPHIMURIUM, Strain/Indicator: TA100, Metabolic Activation: RAT, LIVER, S-9, PHENOBARBITAL AND BETA-NAPHTHOFLAVONE, Method: PREINCUBATION); “inactive; negative” (Test System: AMES SALMONELLA TYPHIMURIUM, Strain/Indicator: TA102, Metabolic Activation: NONE, Method: PREINCUBATION). The mutagenic call was “inactive; negative” (Test System: AMES SALMONELLA TYPHIMURIUM, Strain/Indicator: TA102, Metabolic Activation: RAT, LIVER, S-9, PHENOBARBITAL AND BETA-NAPHTHOFLAVONE, Method: PREINCUBATION); “inactive; negative” (Test System: AMES SALMONELLA TYPHIMURIUM, Strain/Indicator: TA104, Metabolic Activation: NONE, Method: PREINCUBATION); “inactive; negative” (Test System: AMES SALMONELLA TYPHIMURIUM, Strain/Indicator: TA104, Metabolic Activation: RAT, LIVER, 2-9, PHENOBARBITAL AND BETA-NAPHTHOFLAVONE, Method: PREINCUBATION); “inactive; negative” (Test System: AMES SALMONELLA TYPHIMURIUM, Strain/Indicator: TA104, Metabolic Activation: RAT, LIVER, S-9, PHENOBARBITAL AND BETA-NAPHTHOFLAVONE, Method: PREINCUBATION); “inactive; negative” (Test System: AMES SALMONELLA TYPHIMURIUM, Strain/Indicator: TA1535, Metabolic Activation: HAMSTER, LIVER, S-9, AROCLOR 1254 (10 OR 30%), Method: PREINCUBATION); “inactive; negative” (Test System: AMES SALMONELLA TYPHIMURIUM, Strain/Indicator: TA1535, Metabolic Activation: RAT, LIVER, S-9, AROCLOR 1254 (10 OR 30%), Method: PREINCUBATION). The mutagenic call is, setting by setting: (Test System: AMES SALMONELLA TYPHIMURIUM, Strain/Indicator: TA1535, Metabolic Activation: RAT, LIVER, S-9, KC 500, Method: PREINCUBATION) “inactive; negative”; (Test System: AMES SALMONELLA TYPHIMURIUM, Strain/Indicator: TA1535, Metabolic Activation: RAT, LIVER, S-9, PHENOBARBITAL AND BETA-NAPHTHOFLAVONE, Method: PREINCUBATION) “inactive; negative”; (Test System: AMES SALMONELLA TYPHIMURIUM, Strain/Indicator: TA1537, Metabolic Activation: HAMSTER, LIVER, S-9, AROCLOR 1254 (30%), Method: PREINCUBATION) “inactive; negative”; (Test System: AMES SALMONELLA TYPHIMURIUM, Strain/Indicator: TA1537, Metabolic Activation: RAT, LIVER, S-9, AROCLOR 1254 (30%), Method: PREINCUBATION) “inactive; negative”; (Test System: AMES SALMONELLA TYPHIMURIUM, Strain/Indicator: TA1537, Metabolic Activation: RAT, LIVER, S-9, KC 500, Method: PREINCUBATION) “inactive; negative”; (Test System: AMES SALMONELLA TYPHIMURIUM, Strain/Indicator: TA1537, Metabolic Activation: RAT, LIVER, S-9, PHENOBARBITAL AND BETA-NAPHTHOFLAVONE, Method: PREINCUBATION) “inactive; negative”. The mutagenic call by setting is: (Test System: AMES SALMONELLA TYPHIMURIUM, Strain/Indicator: TA1538, Metabolic Activation: NONE, Method: PREINCUBATION) “inactive; negative”; (Test System: AMES SALMONELLA TYPHIMURIUM, Strain/Indicator: TA1538, Metabolic Activation: RAT, LIVER, S-9, KC 500, Method: PREINCUBATION) “inactive; negative”; (Test System: E. COLI, Strain/Indicator: WP2UVRA/PKM101, Metabolic Activation: NONE, Method: PREINCUBATION) “inactive; negative”; (Test System: E. COLI, Strain/Indicator: WP2UVRA/PKM101, Metabolic Activation: RAT, LIVER, S-9, PHENOBARBITAL AND BETA-NAPHTHOFLAVONE, Method: PREINCUBATION) “inactive; negative”; (Test System: E. COLI, Strain/Indicator: WP2 UVRA, Metabolic Activation: NONE, Method: PREINCUBATION) “inactive; negative”; (Test System: E. COLI, Strain/Indicator: WP2UVRA, Metabolic Activation: NONE, Method: PREINCUBATION) “inactive; negative”. The mutagenic call (Test System: E. COLI, Strain/Indicator: WP2 UVRA, Metabolic Activation: RAT, LIVER, S-9, KC 500, Method: PREINCUBATION) was “inactive; negative” and the mutagenic call (Test System: E. COLI, Strain/Indicator: WP2UVRA, Metabolic Activation: RAT, LIVER, S-9, PHENOBARBITAL AND BETA-NAPHTHOFLAVONE, Method: PREINCUBATION) is “inactive; negative”.

As for `O=C(O)[C@H]1OC(Oc2cccc3c2cc2ccc4cccc5ccc3c2c45)[C@H](O)[C@@H](O)[C@@H]1O` (some centres undefined), the mutagenic call by setting is: under setting [2], “inactive; negative”; (Test System: AMES SALMONELLA TYPHIMURIUM, Strain/Indicator: TA98, Metabolic Activation: RAT, LUNG, S-9, Method: PREINCUBATION) “inactive; negative”.

For `Cc1c(C)c2c(N)c3ccccc3nc2c2ccccc12`, the mutagenic call under setting [1] was “active; positive”; the mutagenic call (Test System: AMES SALMONELLA TYPHIMURIUM, Strain/Indicator: TA97, Metabolic Activation: NONE, Method: STANDARD PLATE) was “active; positive”; the mutagenic call under setting [2] was “active; positive”; the mutagenic call (Test System: AMES SALMONELLA TYPHIMURIUM, Strain/Indicator: TA1537, Metabolic Activation: NONE, Method: PREINCUBATION) is “inactive; negative”; the mutagenic call (Test System: AMES SALMONELLA TYPHIMURIUM, Strain/Indicator: TA1537, Metabolic Activation: NONE, Method: STANDARD PLATE) was “active; positive”.
